These results are taken from the NIST ThermoML archive (doi:10.1016/j.tca.2017.10.003).

For series [1] the following is noted: Crystal; DTA.
Series [2] is described as follows: Molar enthalpy of transition or fusion. The following applies: DSC.

Numbers after ± are expanded uncertainties.

For the molecule `CCCCCCCCCCCCCCCCO` [1-hexadecanol], in series [1], the Normal melting temperature came out at 48.00 ± 5 °C. In series [2] (Crystal 2), the “Molar enthalpy of transition or fusion” value came to 13.1 ± 0.813 kcal/mol.

Turning to `CCCCCCCCCCCCCCCCCCO` [1-octadecanol], in series [1], the Normal melting temperature is 54.00 ± 5 °C. Moreover, in series [2] (Crystal), the “Molar enthalpy of transition or fusion” value came out at 16.2 ± 1.03 kcal/mol.

For the molecule `CCCCCCCCCCCCCCO` [1-tetradecanol], the Normal melting temperature in series [1] worked out at 36.00 ± 5 °C. In addition, the “Molar enthalpy of transition or fusion” value in series [2] (Crystal) is 12.3 ± 0.765 kcal/mol.

In the case of `CCCCCCCC/C=C\CCCCCCCCO` [(Z)-9-octadecen-1-ol], the Normal melting temperature in series [1] is -1.00 ± 5 °C. Further, the “Molar enthalpy of transition or fusion” value in series [2] (Crystal) is 8.41 ± 0.502 kcal/mol.

Regarding `CCCCCCCCCCO` [decan-1-ol], the Normal melting temperature in series [1] amounted to 3.00 ± 5 °C. In addition, in series [2] (Crystal), the “Molar enthalpy of transition or fusion” value turned out to be 7.79 ± 0.502 kcal/mol.

For `CCCCCCCCCCOC(=O)OCCCCCCCCCC` [didecyl carbonate], the Normal melting temperature in series [1] is -1.00 ± 6 °C. For the same molecule, the “Molar enthalpy of transition or fusion” value in series [2] (Crystal) was 11.9 ± 0.741 kcal/mol.

For `CCCCCCCCCCCCOC(=O)OCCCCCCCCCCCC` [didodecyl carbonate], the Normal melting temperature in series [1] was 21.00 ± 6 °C. In addition, the “Molar enthalpy of transition or fusion” value in series [2] (Crystal) was 16.6 ± 1.05 kcal/mol.

Take `CCCCCCCCCCCCCCCCOC(=O)OCCCCCCCCCCCCCCCC` [dihexadecyl carbonate]: the Normal melting temperature in series [1] was 47.00 ± 6 °C. Moreover, the “Molar enthalpy of transition or fusion” value in series [2] (Crystal) came to 23.7 ± 1.46 kcal/mol.

Turning to `CCCCCCCCCCCCCCCCCCOC(=O)OCCCCCCCCCCCCCCCCCC` [dioctadecyl carbonate], the Normal melting temperature in series [1] stood at 50.00 ± 6 °C. In series [2] (Crystal), the “Molar enthalpy of transition or fusion” value is 24.3 ± 1.48 kcal/mol.

On to `CCCCCCCC/C=C\CCCCCCCCOC(=O)OCCCCCCCC/C=C\CCCCCCCC` [dioleyl carbonate], for which the Normal melting temperature in series [1] was -4.00 ± 6 °C. In series [2] (Crystal), the “Molar enthalpy of transition or fusion” value was determined as 13.5 ± 0.813 kcal/mol.

For `CCCCCCCCCCCCCCOC(=O)OCCCCCCCCCCCCCC` [ditetradecyl carbonate], the Normal melting temperature in series [1] amounted to 35.00 ± 6 °C. The “Molar enthalpy of transition or fusion” value in series [2] (Crystal) worked out at 22.6 ± 1.41 kcal/mol.

For the molecule `CCCCCCCCCCCCO` [dodecan-1-ol], in series [1], the Normal melting temperature came to 23.00 ± 5 °C. Further, in series [2] (Crystal), the “Molar enthalpy of transition or fusion” value turned out to be 8.33 ± 0.526 kcal/mol.
